Results on one compound are retold here after article PMC8898874, “NPT1220-312, a TLR2/TLR9 Small Molecule Antagonist, Inhibits Pro-Inflammatory Signaling, Cytokine Release, and NLRP3 Inflammasome Activation” (International Journal of Inflammation, 2022).

Molecules are shown by their SMILES.

The target of experiment [1] is T1, TLR1/2 (Homo sapiens, UniProt O60603).
T1 construct: host or cells: HEK293 (HEK-Blue hTLR2)
Kind of experiment: HEK-Blue hTLR2 SEAP reporter assay, Pam3CSK4-activated (TLR1/2). Particulars: hTLR2 HEK cells activated with Pam3CSK4; mean of at least three determinations; read-out: IC50 (PAM-3; μM). Format: cell-based. The source says:
(§1) Human embryonic kidney (HEK) Blue hTLR2 secreted embryonic alkaline phosphatase (SEAP) reporter 293 cells, expressing the human TLR2 gene; HEK-Blue hTLR3 SEAP reporter 293 cells, expressing the human TLR3 gene; HEK-Blue hTLR4 SEAP reporter 293 cells, expressing the human TLR4 gene; HEK-Blue hTLR7 SEAP reporter 293 cells, expressing the human TLR7 gene; and HEK-Blue hTLR8 SEAP reporter 293 cells, expressing the human TLR8 gene. HEK Blue cells expressing recombinant human TLRs were obtained by cotransfection of the human TLR2, TLR3, TLR4, TLR7, TLR8, or TLR9 and SEAP (secreted embryonic alkaline phosphatase) genes into HEK293 cells. The SEAP reporter gene was placed under the control of a minimal promoter fused to five NFĸB and AP-1 binding sites. Stimulation with TLRs ligands activates NFĸB and AP-1 that induce the production of SEAP. Therefore, these cells are designed for studying the stimulation of TLRs by monitoring the activation of NFĸB/AP-1. These NFĸB reporter cell lines were used as a primary screening tool due to their robust and well-characterized responses to TLRs activators and inhibitors. […]
(In general: Reporter assays use an easily measured gene product as a stand-in for the process of interest.)

Experiment [2] concerns the target T2, TLR2/6 (Homo sapiens, UniProt O60603).
T2 construct: host or cells: HEK293 (HEK-Blue hTLR2)
Kind of experiment: HEK-Blue hTLR2 SEAP reporter assay, Pam2CSK4-activated (TLR2/6). Format: cell-based. Particulars: hTLR2 HEK cells activated with Pam2CSK4; mean of at least three determinations; read-out: IC50 (PAM-2; μM).
From the text: as §1

T1 sequence (O60603 21-784): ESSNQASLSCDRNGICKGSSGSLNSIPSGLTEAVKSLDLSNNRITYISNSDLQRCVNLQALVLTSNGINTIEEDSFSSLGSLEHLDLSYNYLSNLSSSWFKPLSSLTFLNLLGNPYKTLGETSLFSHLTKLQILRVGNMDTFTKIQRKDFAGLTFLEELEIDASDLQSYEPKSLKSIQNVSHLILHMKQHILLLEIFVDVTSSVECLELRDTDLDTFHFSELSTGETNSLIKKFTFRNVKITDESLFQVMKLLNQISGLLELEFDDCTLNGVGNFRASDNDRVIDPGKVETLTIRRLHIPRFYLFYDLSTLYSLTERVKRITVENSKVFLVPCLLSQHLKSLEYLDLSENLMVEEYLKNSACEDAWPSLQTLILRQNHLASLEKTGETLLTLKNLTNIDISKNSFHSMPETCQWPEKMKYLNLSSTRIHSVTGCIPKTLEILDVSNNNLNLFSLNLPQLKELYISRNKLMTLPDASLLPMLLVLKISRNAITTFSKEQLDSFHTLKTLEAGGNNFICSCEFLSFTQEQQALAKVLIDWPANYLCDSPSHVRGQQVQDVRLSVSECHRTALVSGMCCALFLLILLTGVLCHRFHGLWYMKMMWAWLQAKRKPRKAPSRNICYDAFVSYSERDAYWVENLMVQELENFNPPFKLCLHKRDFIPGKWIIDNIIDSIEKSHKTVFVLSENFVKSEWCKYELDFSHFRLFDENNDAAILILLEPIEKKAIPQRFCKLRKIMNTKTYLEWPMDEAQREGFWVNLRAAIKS
T2 sequence (O60603 21-784): as above

What is called IC50 is the concentration that gives 50% inhibition. `COc1cccc(C=O)c1O` [O-vanillin]: the IC50 was determined as 40.2 µM in experiment [1] and 61.6 µM in experiment [2].
